The values that follow come from a melting point compilation (Tetko et al.).

As a reminder, the melting point is the temperature, or range, at which the solid turns liquid. As for `Nc1ccc(F)c(NS(=O)(=O)Cc2ccccc2)c1`, the melting point lay within 172 to 174 °C.

Turning to `Nc1cc(-c2cc3ccccc3o2)n[nH]1`, the melting point lay in the range of 124 to 126 °C.

On to `COCCc1ccc(S(=O)(=O)Cl)cc1`, for which the melting point was 40 to 42 °C.

In turn, `O=Cc1ccc(N2CCOCC2)c(F)c1` returned a melting point of 68 to 70 °C.

As to `O=C1CNC(=O)c2ccccc2N1`, the melting point fell in the range of 324 to 326 °C.

On to `N#Cc1ccccc1NCc1ccco1`, for which the melting point was 60 to 62 °C.

Take `O=C(CCn1ccnc1)NC1CCC(C(=O)O)CC1` (stereo not drawn): the melting point was 229 to 231 °C.

As to `O=C(O)c1ccc(-n2cncn2)c(F)c1`, the melting point fell in the range of 285 to 287 °C.

Regarding `CS(=O)(=O)c1nc(C(=O)O)c2ccccn12`, the melting point was 259 to 261 °C.

`Oc1cccc(-c2nnc3n2CCCCC3)c1` came in with a melting point of 244 to 246 °C.

Regarding `Cc1ccc(Cl)c(C(=O)O)c1N`, the melting point lay in the range of 152 to 154 °C.

`c1cc(-n2ccnc2)ccn1` returned a melting point of 104 to 106 °C.

Compound `Cc1n[nH]cc1N` returned a melting point of 93 to 95 °C.

`N#CC1(NC(=O)CCl)CCCC1` returned a melting point of 74 to 76 °C.

With `NC(=O)NC(CCC(=O)O)C(=O)O` (stereo not drawn), the melting point fell in the range of 161 to 163 °C.

Compound `O=C(O)c1cc2occc2s1` yielded a melting point of 188 to 190 °C.

Compound `O=C(O)c1cc(Br)cc(S(=O)(=O)Cl)c1` yielded a melting point of 154 to 156 °C.

`O=C(CNCc1cccnc1)Nc1ccc(Cl)cc1` had a melting point of 81 to 83 °C.

Take `Nc1nnc(-c2ccccc2Cl)[nH]1`: the melting point was in the range of 218 to 220 °C.

Regarding `O=C(O)c1ccc(Cl)cc1I`, the melting point was 157 to 159 °C.

`Cc1nn(-c2ccc(F)cc2)c(Cl)c1C(=O)O`: the melting point was 253 to 255 °C.

For `O=C(O)CNc1ccc(Cl)cc1`, the melting point lay in the range of 142 to 144 °C.

Compound `O=C(O)c1cc(F)c(F)cc1C(=O)O` had a melting point of 158 to 160 °C.

As for `COc1ccc(N)c2cccnc12`, the melting point was 155 to 157 °C.

For `CC(C)CC(C(=O)O)N1C(=O)c2ccccc2C1=O` (stereo not drawn), the melting point is 119 to 121 °C.

The compound `COc1ccc(C(=O)c2ccc(F)cc2)cc1` yielded a melting point of 90 to 92 °C.

`CNc1nc2ccccc2[nH]1` came in with a melting point of 190 to 192 °C.

In turn, `O=C(O)c1cc(S(=O)(=O)N2CCOCC2)ccc1Cl` came in with a melting point of 183 to 185 °C.

For `CC(C)c1cc(C(=O)O)n(C)n1`, the melting point was 158 to 160 °C.

Turning to `Cc1ccc(-c2nc(N)sc2CN(C)C)cc1`, the melting point lay within 175 to 177 °C.

Compound `O=C(O)c1sccc1-c1ccc(F)cc1` showed a melting point of 199 to 201 °C.

With `COc1ccc2oc(C)c(C(=O)O)c2c1`, the melting point fell in the range of 209 to 211 °C.

For the compound `O=C(O)CNC(=O)c1ccc(N2CCCC2=O)cc1`, the melting point was 190 to 200 °C.

Take `O=C1CCCOc2cc(Br)ccc21`: the melting point was in the range of 39 to 41 °C.

Regarding `O=C(O)c1nccn2c(Br)cnc12`, the melting point is 158 to 160 °C.

`Cc1ccccc1NC(=O)C1CCc2ccccc2N1` (stereo not drawn) came in with a melting point of 115 to 117 °C.

`Nc1nc(-c2ccc(Oc3ccccc3)cc2)cs1` yielded a melting point of 195 to 197 °C.

`CC(C)C(NS(=O)(=O)c1ccccc1F)C(=O)O` (stereo not drawn) returned a melting point of 159 to 161 °C.

With `O=C(CCl)N1N=C(c2ccco2)CC1c1cccs1` (stereo not drawn), the melting point lay within 153 to 155 °C.

For `N#Cc1cc(N)ccc1Cl`, the melting point was 127 to 129 °C.

The compound `Cc1ccc(C)n1Cc1ccccc1Cl` yielded a melting point of 87 to 89 °C.

`COc1cc(C(=O)O)cc2c1OCCO2` yielded a melting point of 203 to 205 °C.

For `COc1ccc(C(=O)O)nc1Br`, the melting point lay within 232 to 234 °C.

`CCOC(=O)CNCC(N)=O`: the melting point lay in the range of 70 to 72 °C.

In the case of `Cn1cc(Br)cc1C(=O)O`, the melting point is 129 to 131 °C.

Consider `O=C1c2ccccc2C(=O)N1CC1CN(Cc2ccccc2)CCO1` (stereo not drawn), for which the melting point was in the range of 136 to 138 °C.

`O=C(O)c1ccc(F)c(COCC2CC2)c1` registered a melting point of 69 to 71 °C.

Compound `CC(C)S(=O)(=O)c1ccccc1C(=O)O` showed a melting point of 149 to 151 °C.
